In paper PMC8238948, “Potent inhibitors of toxic alpha-synuclein identified via cellular time-resolved FRET biosensors” (NPJ Parkinson's Disease, 2021):
Entries after “also recorded” stand apart in the source; their conditions may differ. Structures can show the parent of a compound that is named as a salt.

Assays:
recombinant αSN = target: T1, recombinant αSN (Homo sapiens, UniProt P37840); experiment: Non-seeded Thioflavin-T assay (monomer induced aggregation); format: biochemical; conditions: 140 μM αSN monomer, 70 μM compound (1:2), 900 RPM, 37 °C
T1 construct: made in house; host or cells: Escherichia coli BL21(DE3), T7-7 plasmid
Protocol: ThT aggregation assays monitor the kinetics and extent of fibril formation due to spontaneous and seeded aggregation[26],[92]–[95]. The cascade of spontaneous αSN fibrillization includes formation and maturation of oligomeric αSN assemblies[96],[97]. Figure 10 presents spontaneous ThT aggregation for αSN(m) (140 µM) with or without hit compounds RO, DEM, and Bay (70 µM; a sub-stoichiometric ratio, 1:2, compound:protein).
Fig. 10 Monomer induced aggregation of αSN (non-seeded Thioflavin-T assay). Recombinant αSN was incubated at 140 μM monomer (70 μM compound) under continuous shaking (900 RPM) at 37 °C. All three hit compounds modulated αSN fibrillization with RO having a more significant effect over Bay and DEM, respectively.
ThT (Sigma, product no. T3516) was dissolved in PBS buffer and was filtered through a 0.2-µm syringe filter to make a stock solution of 2.5 mM. Working ThT concentration was 20 µM. PFF seeds were produced via constant agitation of 1000 RPM at 37 °C (ThermoMixer-C, Eppendorf, Hauppauge, NY) of 500 µL of 350 µM αSN in PBS in a 2 mL tube for 5 days. PFFs were aliquoted and flash frozen and stored at −80 °C until further use. PFF seeds were rapidly thawed, diluted to 35 µM in PBS, and sonicated 120 pulses at 50% using a probe-tip sonicator following the established protocols. Master mix samples for each of the different ThT assays were prepared and dispensed in triplicate as 50 µL in 384-well flat, black-bottom polypropylene plates (PN 781209, Greiner Bio-One) and sealed with fluorescently transparent film. Conditions for non-seeded, seeded, and cell homogenate assays varied slightly.
Non-seeded ThT master mix was prepared in cell culture PBS with 140 µM (2 mg/mL) αSN(m) and dispensed into compound plates at 70 µM final compound concentration (1:2 compound:protein ratio).

[1] = tested on: primary mouse hippocampal neurons treated with murine-PFF; experiment: Primary neuron model of αSN PFF pathology; format: cell-based; conditions: 1 µM compound, co-treatment with murine-PFF for 12 days
Description: As described previously, numerous in vivo and in vitro alpha-synucleinopathy mouse models have been developed using treatment with sonicated αSN PFF to model pathology. PFF treatment of primary mouse hippocampal neurons results in neurotoxicity and increased phosphoserine-129 (pS^129) immunoreactivity, a marker for alpha-synucleinopathy pathology[87],[88]. These effects can be produced using either human-PFF or murine-PFF with the murine-PFF providing a stronger response. Primary neurons (7 days in vitro (DIV)) were treated for 12 days with murine-PFF or PBS and 1 µM hit compound or DMSO (compound vehicle). Neurons were fixed and stained for NeuN (neuronal nuclei), Map2 (neurite and neuronal morphology), and 81a (pS^129) (see Supplementary Fig. 16). […] Future studies focused on hit-to-lead optimization will focus on these nuances to resolve hit compound’s MOA.
Primary neuronal cultures were prepared from CD1 embryos on E16–18, as previously described. Primary mouse neuron protocol was approved by the University of Pennsylvania Institutional Animal Care and Use Committee. Tissue culture plates and coverslips were coated with Poly-D-lysine (Sigma) before addition of cells. Neurons were plated in 96-well plates (60,000 cells/cm^2). Cultures were maintained in Neurobasal medium supplemented with B27 and Glutamax (all from Invitrogen).
PFF treatment was performed at 7 DIV and cultures were incubated for a further 12 days prior to fixation and analysis. […] PFF concentrations are expressed as the total equivalent αSN monomer content in the preparation. […]
Cultured neurons were fixed by replacing media with warm PFA (4% in PBS containing 4% sucrose) for 15 min at RT. […] Image analysis and quantification was performed using the InCell Toolbox Analyzer software (GE Healthcare Life Sciences). The total integrated area for 81a immunopositivity was quantified for each sample and then normalized (divided) by the number of NeuN-positive objects in the fields examined.

[2] = target: T2, intra-protomeric αSN biosensor (GFP-αSN-RFP) in HEK293 cells (Homo sapiens, UniProt P37840); experiment: FRET response on intra-protomeric αSN biosensor; format: cell-based; conditions: 10 µM
T2 construct: In addition to full-length αSN fusion constructs, we observe both C-terminally and N-terminally truncated αSN species; expressed in transfected cells; host or cells: HEK293
Protocol: Hits were also evaluated with the intra-protomeric αSN and control, non-specific biosensors. […] The compounds RO, BAY, and DEM as well as the control EGCG each reduced FRET, indicating either reduction in oligomerization or expanded oligomer conformation. Tests of these compounds in two control biosensor systems (GFP/RFP at 1:8 and GFP-linker32-RFP; see Supplementary Fig. 13a, b, respectively) show no significant FRET change.
Fig. 7 FRET response to pilot HTS hits on intra-protomeric αSN biosensor. […] With both donor and acceptor XFP fused to one construct, this biosensor is sensitive to both oligomer formation as well as conformation. […] Experiments were performed with n = 3; *p < 0.05, **p < 0.01, ***p < 0.001, ns indicates no significant difference as determined by Student’s t test.

Row | SMILES | ThT signal, spontaneous (non-seeded) aggregation (recombinant αSN) | pS129 pathology staining (81a/NeuN) [1] | change in intra-protomeric FRET [2]
1 | COC(=O)C1=C(C)NC(C)=C([N+](=O)[O-])C1c1ccccc1C(F)(F)F (racemic) [BAY, (±)-Bay K 8644] | lesser degrees of attenuation | reduced the αSN pathology; also recorded: reduces the pS^129 phenotype | reduced FRET
2 | CN(C)[C@@H]1C(O)=C(C(N)=O)C(=O)[C@@]2(O)C(O)=C3C(=O)c4c(O)ccc(Cl)c4[C@@H](O)[C@H]3C[C@@H]12 [DEM, Demeclocycline HCl] | lesser degrees of attenuation | reduced the αSN pathology; also recorded: reduces the pS^129 phenotype | reduced FRET
3 | Nc1ccc(-c2nc3ccc(-c4nc5ccc(N)cc5[nH]4)cc3[nH]2)cc1 [RO, Ro 90–7501] | significant ThT signal reduction | little to no effect | reduced FRET
